IC50 data for six molecules are collected here from patent US20090233937A1 (TAKEDA PHARMACEUTICAL COMPANY LIMITED, priority 2008, published 2009).

A value given as a limit tells only on which side of the number the result lay.

The term IC50 denotes the concentration that gives 50% inhibition.

This experiment relates to human breast cancer cell BT-474. The experiment in a line: Inhibitory action on breast cancer cell BT-474 proliferation in vitro. In kind it is cell-based. As to conditions: 120 h, BT-474 cells, cultured for 5 days with compound, SRB dye protein content. On the procedure: A suspension of human breast cancer cell BT-474 (100 μl (6,000 cells)) were plated in a 96-well microplate and cultured in an incubator (37° C., 5% carbon dioxide). On the following day, 100 μl of a solution of each test compound previously diluted serially in 2-fold, was added, and the cells were cultured for 5 days. After the culture medium containing the test compound was removed, the cells were washed and fixed with 50% trichloroacetic acid, after which a 0.4% (w/v) SRB dye solution (dissolved in 1% acetic acid) was added to stain as well as fix the cell protein (Skehan et al., Journal of the National Cancer Institute, Vol. 82, pp. 1107-1112, 1990). After washing with a 1% acetic acid solution, 100 μl of extract solution (10 mM, Tris buffer) was added to extract the dye and the absorbance was measured at a wavelength of 550 nm to quantify the amount of cells as protein content.
(The SRB assay estimates cell density from bound dye.)
For the molecule `Cc1cc(Nc2ncnc3ccn(CCNC(=O)C(C)(C)CO)c23)ccc1Oc1cccc2sncc12` [Example 39, N-[2-(4-{[4-(1,2-benzoisothiazol-4-yloxy)-3-methylphenyl]amino}-5H-pyrrolo[3,2-d]pyrimidin-5-yl)ethyl]-3-hydroxy-2,2-dimethylpropanamide], the IC50 was less than 100 nM. To `OCCn1ccc2ncnc(Nc3ccc(Oc4cccc5sncc45)c(Cl)c3)c21` [Example 3, 2-(4-{[4-(1,2-benzoisothiazol-4-yloxy)-3-chlorophenyl]amino}-5H-pyrrolo[3,2-d]pyrimidin-5-yl)ethanol] belongs less than 100 nM; to `CC(=O)NCCn1ccc2ncnc(Nc3ccc(Oc4cccc5sncc45)c(Cl)c3)c21` [Example 7, N-[2-(4-{[4-(1,2-benzoisothiazol-4-yloxy)-3-chlorophenyl]amino}-5H-pyrrolo[3,2-d]pyrimidin-5-yl)ethyl]acetamide methanesulfonate], less than 100 nM. To `CC(C)(CO)C(=O)NCCn1ccc2ncnc(Nc3ccc(Oc4cccc5sncc45)c(F)c3)c21` [Example 11, N-[2-(4-{[4-(1,2-benzoisothiazol-4-yloxy)-3-fluorophenyl]amino}-5H-pyrrolo[3,2-d]pyrimidin-5-yl)ethyl]-3-hydroxy-2,2-dimethylpropanamide] belongs less than 100 nM; to `CC(C)NC(=O)NCCn1ccc2ncnc(Nc3ccc(Oc4cccc5sncc45)c(Cl)c3)c21` [Example 54, 1-[2-(4-{[4-(1,2-benzoisothiazol-4-yloxy)-3-chlorophenyl]amino}-5H-pyrrolo[3,2-d]pyrimidin-5-yl)ethyl]-3-(1-methylethyl)urea methanesulfonate], less than 100 nM; to `CC(C)(N)C(=O)NCCn1ccc2ncnc(Nc3ccc(Oc4cccc5sncc45)c(Cl)c3)c21` [Example 53, N-[2-(4-{[4-(1,2-benzoisothiazol-4-yloxy)-3-chlorophenyl]amino}-5H-pyrrolo[3,2-d]pyrimidin-5-yl)ethyl]-2-methylalaninamide dimethanesulfonate], less than 100 nM.
